The values below come from paper PMC9721424, “Novel N-methylsulfonyl-indole derivatives: biological activity and COX-2/5-LOX inhibitory effect with improved gastro protective profile and reduced cardio vascular risks” (Journal of Enzyme Inhibition and Medicinal Chemistry, 2022).

One series has as its system stomach. Put plainly: Histopathological examination of stomach. The following applies: rat, in vivo. The format is in vivo, rats. The procedure: In brief, the stomachs of each animal group’s rat were fixed in 10% neutral buffered formalin for 48 h. The sections were then dehydrated, cleared, fixed in paraffin, sectioned ([…]), and stained with H&E stain.
A further series has as its target T1, COX-2 (Ovis aries, UniProt P79208).
T1 sequence (P79208 17-603): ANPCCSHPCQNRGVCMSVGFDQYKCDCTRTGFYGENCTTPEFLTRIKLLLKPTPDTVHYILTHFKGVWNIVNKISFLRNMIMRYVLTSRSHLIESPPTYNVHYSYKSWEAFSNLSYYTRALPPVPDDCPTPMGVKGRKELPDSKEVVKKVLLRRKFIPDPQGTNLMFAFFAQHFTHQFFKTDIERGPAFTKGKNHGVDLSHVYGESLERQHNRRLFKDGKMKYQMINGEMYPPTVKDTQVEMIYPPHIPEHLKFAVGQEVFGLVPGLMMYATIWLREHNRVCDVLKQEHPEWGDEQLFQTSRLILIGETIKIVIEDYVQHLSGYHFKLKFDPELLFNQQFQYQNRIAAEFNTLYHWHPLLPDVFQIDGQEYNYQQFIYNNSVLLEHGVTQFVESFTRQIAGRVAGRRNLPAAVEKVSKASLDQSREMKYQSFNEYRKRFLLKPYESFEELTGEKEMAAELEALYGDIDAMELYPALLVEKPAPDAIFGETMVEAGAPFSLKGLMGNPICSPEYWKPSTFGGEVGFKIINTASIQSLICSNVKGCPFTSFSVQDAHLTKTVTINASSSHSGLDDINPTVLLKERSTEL
Put plainly: COX-2 inhibition, enzyme immune assay (EIA) kit. The format is biochemical, ovine. The following applies: for S.I (IC50 COX-1/IC50 COX-2): COX-2 selectivity index; for SI: lab report, COX1/COX2.

The target of a further series is T2, 5-LOX enzyme (Homo sapiens, UniProt P09917).
T2 construct: purchased Cayman Chemical K980-100
T2 sequence (P09917 1-674): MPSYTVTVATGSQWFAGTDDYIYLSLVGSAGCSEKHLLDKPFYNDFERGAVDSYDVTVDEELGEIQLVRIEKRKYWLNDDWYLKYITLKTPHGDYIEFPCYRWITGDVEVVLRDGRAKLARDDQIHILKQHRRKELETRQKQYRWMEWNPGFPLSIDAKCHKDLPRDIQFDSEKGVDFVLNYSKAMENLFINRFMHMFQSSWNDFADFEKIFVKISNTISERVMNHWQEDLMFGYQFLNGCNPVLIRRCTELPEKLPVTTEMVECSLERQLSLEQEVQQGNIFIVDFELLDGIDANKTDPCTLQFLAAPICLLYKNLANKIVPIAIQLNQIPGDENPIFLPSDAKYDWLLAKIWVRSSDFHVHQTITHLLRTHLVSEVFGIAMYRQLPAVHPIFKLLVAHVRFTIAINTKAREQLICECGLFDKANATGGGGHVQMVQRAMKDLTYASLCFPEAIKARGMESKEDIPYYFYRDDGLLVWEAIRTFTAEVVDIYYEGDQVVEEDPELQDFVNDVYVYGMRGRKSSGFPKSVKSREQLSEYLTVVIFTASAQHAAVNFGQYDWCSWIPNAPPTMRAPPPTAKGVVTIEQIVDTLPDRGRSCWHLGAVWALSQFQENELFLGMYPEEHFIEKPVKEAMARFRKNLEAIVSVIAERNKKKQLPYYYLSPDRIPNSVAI
Put plainly: 5-LOX inhibition, Human Lipoxygenase Inhibitor Screening Assay (EIA) kit. The format is biochemical. The procedure:
The ability of the test compounds to inhibit the 5-LOX enzyme (IC50 value, μM) was detected using the Cayman Human Lipoxygenase Inhibitor Screening Assay (EIA) kit (catalog no. K980-100, Cayman Chemical). The IC50 values of test compounds were measured in µM according to the manufacturer’s instructions and reported method.

The subject of series [1] is TNF-α in RAW264.7 macrophage cells. In words: In vitro measurement of TNF-α in RAW264.7 macrophage cells (RT-qPCR). The format is cell-based. The source says:
Both Lipopolysaccharides (LPS) and hispidin were purchased from Sigma (Sigma-Aldrich, St. Louis, MO, USA)[40]. The foetal bovine serum (FBS) and Dulbecco’s modified Eagle’s medium (DMEM) were purchased from Hyclone (General Electric Healthcare Life Sciences, Mississauga, Canada), penicillin streptomycin (P/S) was purchased from Solarbio (Solarbio life sciences, Beijing, P. R. China). Results of all in vitro anti-inflammatory screening were obtained from the confirmatory diagnostic unit, VACSERA, Egypt.
DMEM was used to cultivate the macrophage cells RAW264.7 (Shanghai BOGO Industrial Co., Ltd., Shanghai, China), and supplemented with 10% FBS and 1% P/S (100 U/ml and […], respectively). […] They were treated with various concentrations of hispidin, then with 1 μg/ml LPS for the indicated time.
PBS (1 ml/well) was used to wash the cells in 24-well plates. […] For the experiments, CL Buffer included MgCl2 (M1028; Sigma) or RNasin Plus RNase Inhibitor (N2615; Promega). Before use, both Bio-Rad SPR and CL buffer were equilibrated to room temperature. […] Carefully, the resulting lysates were collected and either analysed immediately or stored frozen ([…]).
RT-qPCR analysis was performed in one-step SYBR Green RT-qPCR. […] A CFX96 real-time PCR instrument (Bio-Rad) was used under the following protocol: 50uC for 10 min, 95uC for 5 min, 95uC for 10 s/61uC for 15 s/72uC for 30 s.
Total RNA purified from cells was used as an RT-qPCR quantification standard.

The nature of the next series: DPPH free radical assay. The format is biochemical. As to conditions: 540 nm, relative to Trolox; for DPPH test results (µM trolox equivalent/ 1mg sample ± SD): 30 min. The procedure: Preparation of samples was occurred at the following concentrations: Samples 3a, 4a, 5b, 5d and 5e at final concentrations of 0.5 mg/ml in methanol: DMSO 9:1 v/v. Samples 4b and 4d at final concentrations 0.025 mg/ml in methanol: DMSO 9:1 v/v, sample 5a at final concentrations 0.25 mg/ml in methanol: DMSO 9:1 v/v, Sample 4c, 5c and 4e at final concentrations 0.05 mg/ml in methanol: DMSO 9:1 v/v, sample 3b at final concentration 0.75 mg/ml methanol: DMSO 9:1 v/v. A stock solution of 100 µM concentration of Trolox, a standard used in this experiment, was prepared in methanol from which seven concentrations were prepared, including 50, 40, 30, 20, 15, 10 and 5 µM.
The DPPH (2,2-diphenyl-1-picryl-hydrazyl-hydrate) free radical assay was carried out according to the method of Boly et al. 2016[39]. Briefly, freshly prepared DPPH reagent (100 µl, 0.1% in methanol) was added to 100 µl of the sample on 96 well plates (n = 6). The reaction was incubated at room temp for 30 min in the dark. After completion of the incubation time, the reduction in DPPH colour intensity was measured at 540 nm. Data obtained was represented as means ± SD, according to the following equation, percentage inhibition = [(Average absorbance of blank – average absorbance of the test)/(Average absorbance of blank)] *100. The results were recorded using a microplate reader, FluoStar Omega.
Microsoft Excel® was used to analyse the obtained results. The IC50 values were calculated using Graph pad Prism 6® by converting the concentrations to their logarithmic value and selecting the non-linear inhibitor regression equation (log (inhibitor) vs. normalised response – variable slope equation). The methods used and the final test report (R-SO7320) were obtained from Nawah Scientific.

A further series addresses T3, ovine COX-1 (Ovis aries, UniProt P05979).
T3 sequence (P05979 25-600): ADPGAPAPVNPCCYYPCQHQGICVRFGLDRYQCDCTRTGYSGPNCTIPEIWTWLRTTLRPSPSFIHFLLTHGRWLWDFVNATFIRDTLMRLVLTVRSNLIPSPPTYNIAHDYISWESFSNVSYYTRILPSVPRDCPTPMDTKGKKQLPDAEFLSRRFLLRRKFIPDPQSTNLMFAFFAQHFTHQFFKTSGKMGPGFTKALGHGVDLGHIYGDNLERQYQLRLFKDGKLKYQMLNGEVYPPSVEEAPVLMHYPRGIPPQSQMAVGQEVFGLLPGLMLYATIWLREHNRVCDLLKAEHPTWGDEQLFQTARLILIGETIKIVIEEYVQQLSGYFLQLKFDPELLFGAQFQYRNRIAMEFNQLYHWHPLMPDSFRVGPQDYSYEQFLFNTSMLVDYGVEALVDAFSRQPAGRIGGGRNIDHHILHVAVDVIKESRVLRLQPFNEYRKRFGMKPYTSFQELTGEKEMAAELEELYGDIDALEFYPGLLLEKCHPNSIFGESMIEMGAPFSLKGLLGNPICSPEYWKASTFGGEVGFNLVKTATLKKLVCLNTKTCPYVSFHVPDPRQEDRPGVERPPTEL
Put plainly: COX-1 inhibition, enzyme immune assay (EIA) kit.

Like-named read-outs stand apart in the source and are kept apart here.

Source text for ovine COX-1: Colorimetric enzyme immunoassay (EIA) kits were done to screen for the isozyme-specific inhibition.

For `COc1ccc2c(c1)c(CC(=O)O)c(C)n2C(=O)c1ccc(Cl)cc1` [Indomethacin, reference compound], in the series with stomach, the stomach histopathology finding entry was “multiple complete and perforating ulcers and superficial erosions”.
Take `CS(=O)(=O)n1cc(/C=N/N=C2/NCC(=O)S2)c2ccccc21` [Compound 5a]: on COX-2, the “S.I (IC50 COX-1/IC50 COX-2)” value worked out at 0.59. In addition, the SI at COX-2 was found to be 0.592. The IC50 worked out at 9.23 ± 0.49 µM against 5-LOX enzyme and 3.95 ± 0.11 µM on ovine COX-1 (read-out: IC50 COX-1). The 5-LOX %inh is recorded as 7.21% at 5-LOX enzyme (conc 0.1 (μM)), 17.4% at 5-LOX enzyme (conc 1 (μM)), 50.3% on 5-LOX enzyme (conc 10 (μM)) and 79% at 5-LOX enzyme (conc 100 (μM)). The TNF-α fold change in series [1] was 0.66. For the same compound, the “DPPH test results (µM trolox equivalent/ 1mg sample ± SD)” value in “DPPH free radical assay” is 12.71 ± 1.16 µM trolox equivalent/ 1mg sample. For the same compound, the COX1 %inh on ovine COX-1 (conc 0.1 (μM)) is 13.6%; at ovine COX-1 (conc 1 (μM)), 32.4%; at ovine COX-1 (conc 10 (μM)), 59%; at ovine COX-1 (conc 100 (μM)) it was 85.6%.
The compound `CS(=O)(=O)n1cc(/C=N/NC(=O)Nc2ccccc2)c2ccccc21` [Compound 3b, (E)-2{[1-(methylsulfonyl)-1H-indol-3yl]methylene}-N-phenylhydrazinecarboxamide] yielded a melting point of 234 to 236 °C. Besides, on COX-2, the “S.I (IC50 COX-1/IC50 COX-2)” value stood at 1.46 and the SI is reported as 1.455. Further, the midpoint of inhibition against 5-LOX enzyme, the IC50, lay at 14.8 ± 0.78 µM. At 5-LOX enzyme (conc 0.1 (μM)), the 5-LOX %inh stood at 5.27%. This compound also returned a 5-LOX %inh at 5-LOX enzyme (conc 1 (μM)) of 16.1%. The 5-LOX %inh at 5-LOX enzyme (conc 10 (μM)) is 36.1%. The same compound returned a 5-LOX %inh at 5-LOX enzyme (conc 100 (μM)) of 78.4%. In series [1], the TNF-α fold change is reported as 0.71. Further, in “DPPH free radical assay”, the “DPPH test results (µM trolox equivalent/ 1mg sample ± SD)” value was 14.38 ± 0.85 µM trolox equivalent/ 1mg sample. At ovine COX-1 (IC50 COX-1), this compound displayed a half-inhibitory concentration (IC50) of 32 ± 0.91 µM. The COX1 %inh at ovine COX-1 (conc 0.1 (μM)) is given as 3.48%. Besides, the COX1 %inh at ovine COX-1 (conc 1 (μM)) is on record as 11.6%. At ovine COX-1 (conc 10 (μM)), this compound gave a COX1 %inh of 30.5%. For the same compound, on ovine COX-1 (conc 100 (μM)), the COX1 %inh came to 68.5%.
Take `Cc1ccc(NC(=S)N/N=C/c2cn(S(C)(=O)=O)c3ccccc23)cc1` [Compound 4d, (E)-2{[1-(methylsulfonyl)-1H-indol-3yl]methylene}-N-(p-tolyl)hydrazinecarbothioamide]: the melting point lay within 237 to 239 °C. For the same compound, on COX-2, the “S.I (IC50 COX-1/IC50 COX-2)” value was determined as 2.38 and the SI is on record as 2.375. Besides, the IC50 against 5-LOX enzyme is 17.9 ± 0.95 µM. Besides, at 5-LOX enzyme (conc 0.1 (μM)), the 5-LOX %inh came to 4.88%. At 5-LOX enzyme (conc 1 (μM)), this compound gave a 5-LOX %inh of 12.5%. Further, the 5-LOX %inh at 5-LOX enzyme (conc 10 (μM)) came out at 33.7%. This compound registered a 5-LOX %inh at 5-LOX enzyme (conc 100 (μM)) of 77.2%. Further, in series [1], the TNF-α fold change was 0.19. The “DPPH test results (µM trolox equivalent/ 1mg sample ± SD)” value in “DPPH free radical assay” is 389.82 ± 19.25 µM trolox equivalent/ 1mg sample. In the series “DPPH free radical assay” (values in text), this compound yielded a DPPH anti-oxidant activity of 389.82 µM Trolox equivalent/mg. Besides, the IC50 at ovine COX-1 (IC50 COX-1) was found to be 17.1 ± 0.49 µM. At ovine COX-1 (conc 0.1 (μM)), this compound returned a COX1 %inh of 7.22%. The compound further yielded a COX1 %inh at ovine COX-1 (conc 1 (μM)) of 13.4%. The compound further yielded a COX1 %inh on ovine COX-1 (conc 10 (μM)) of 36.4%. Besides, at ovine COX-1 (conc 100 (μM)), the COX1 %inh amounted to 75.8%.
